Reference: patent US20090197910A1, “NOVEL VIRAL REPLICATION INHIBITORS” (KATHOLIEKE UNIVERSITEIT LEUVEN, priority 2006, published 2009)

How the values were obtained:
[1] = system: HCV Subgenomic Replicon; assay: HCV-Huh-5-2 replicon cell assay (luciferase); assay type: cell-based, Hepatitis C virus; details: for EC50: Hepatitis C virus, HCV subgenomic replicon in Huh-5-2 cells, 72 hours, luciferase, read-out: EC50 (concentration required to inhibit luciferase activity in the replicon system by 50%); for SI (selectivity index, ratio of CC50 to EC50): Huh-5-2 cells
Protocol: (§1) Huh-5-2 cells [a cell line with a persistent HCV replicon I3891uc-ubi-neo/NS3-3′/5.1; replicon with firefly luciferase-ubiquitin-neomycin phosphotransferase fusion protein and EMCV-IRES driven NS3-5B HCV polyprotein] was cultured in RPMI medium (Gibco) supplemented with 10% fetal calf serum, 2 mM L-glutamine (Life Technologies), 1× non-essential amino acids (Life Technologies); 100 IU/ml penicillin and 100 ug/ml streptomycin and 250 ug/ml G418 (Geneticin, Life Technologies). Cells were seeded at a densitiy of 7000 cells per well in 96 well View Plate™ (Packard) in medium containing the same components as described above, except for G418. Cells were allowed to adhere and proliferate for 24 hr. At that time, culture medium was removed and serial dilutions of the test compounds were added in culture medium lacking G418. Interferon alfa 2a (500 IU) was included as a positive control. Plates were further incubated at 37° C. and 5% CO2 for 72 hours. Replication of the HCV replicon in Huh-5 cells results in luciferase activity in the cells. Luciferase activity is measured by adding 50 μl of 1× Glo-lysis buffer (Promega) for 15 minutes followed by 50 ul of the Steady-Glo Luciferase assay reagent (Promega). Luciferase activity is measured with a luminometer and the signal in each individual well is expressed as a percentage of the untreated cultures. Parallel cultures of Huh-5-2 cells, seeded at a density of 7000 cells/well of classical 96-well cell culture plates (Becton-Dickinson) are treated in a similar fashion except that no Glo-lysis buffer or Steady-Glo Luciferase reagent is added. Instead the density of the culture is measured by means of the MTS method (Promega).

[2] = Cytostatic effect on Huh-5-2 cells (MTS method, parallel cultures); assay type: cell-based; details: human, read-out: CC50 (concentration required to inhibit the proliferation of exponentially growing Huh-5-2 cells by 50%)
Protocol: as §1

## COc1cccc2cc(CSc3nc4cccnc4[nH]3)c(=O)oc12 [Compound 16b, 3-(3H-Imidazo[4,5-b]pyridin-2-ylsulfanylmethyl)-8-methoxy-chromen-2-one]
[1]
  EC50: 10.9 µM
  SI (selectivity index, ratio of CC50 to EC50): 2.78
[2]
  CC50 at 72 h: 30.3 µM

## Cc1cc2nc(SCc3cc4ccccc4oc3=O)[nH]c2cc1C [Compound 4d, 3-(5,6-Dimethyl-1H-benzoimidazol-2-ylsulfanylmethyl)-chromen-2-one]
[1]
  EC50: 15.2 µM
  SI (selectivity index, ratio of CC50 to EC50): 4.37
[2]
  CC50 at 72 h: 66.6 µM

## O=c1oc2ccccc2cc1CSc1nc2cnc(Cl)nc2[nH]1 [Compound 16d, 3-(2-Chloro-9H-purin-8-ylsulfanylmethyl)-chromen-2-one]
[1]
  EC50: 2.03 µM
  SI (selectivity index, ratio of CC50 to EC50): 53.69
[2]
  CC50 at 72 h: 109 µM

## CC(=O)OCC1OC(n2c(SCc3cc4ccccc4oc3=O)nc3cc(C)ccc32)C(OC(C)=O)C(OC(C)=O)C1OC(C)=O (stereo not drawn) [Compound 7b, Acetic acid 3,5-diacetoxy-2-acetoxymethyl-6-[5-methyl-2-(2-oxo-2H-chromen-3-ylmethylsulfanyl)-benzoimidazol-1-yl]-tetrahydro-pyran-4-yl ester]
[1]
  EC50: 8.28 µM
  SI (selectivity index, ratio of CC50 to EC50): 5.42
[2]
  CC50 at 72 h: 44.8 µM

## CC(=O)OCC1OC(n2c(SCc3cc4cc(Br)ccc4oc3=O)nc3ccccc32)CC(OC(C)=O)C1OC(C)=O (stereo not drawn) [Compound 22c, Acetic acid 3,4-diacetoxy-6-[2-(6-bromo-2-oxo-2H-chromen-3-ylmethylsulfanyl)-benzoimidazol-1-yl]-tetrahydro-pyran-2-ylmethyl ester]
[1]
  EC50: 4.08 µM
  SI (selectivity index, ratio of CC50 to EC50): 3.95
[2]
  CC50 at 72 h: 16.1 µM

## O=C(c1ccccc1)c1ccc2[nH]c(SCc3cc4ccccc4oc3=O)nc2c1 [Compound 4c, 3-(5-Benzoyl-1H-benzoimidazol-2-ylsulfanylmethyl)-chromen-2-one]
[1]
  EC50: 6.61 µM
  SI (selectivity index, ratio of CC50 to EC50): 5.58
[2]
  CC50 at 72 h: 36.8 µM

## COc1cccc2cc(CSc3nc4cc(F)ccc4[nH]3)c(=O)oc12 [Compound 4h, 3-(5-Fluoro-1H-benzoimidazol-2-ylsulfanylmethyl)-8-methoxy-chromen-2-one]
[1]
  EC50: 15.9 µM
  SI (selectivity index, ratio of CC50 to EC50): 2.63
[2]
  CC50 at 72 h: 41.9 µM

## O=c1oc2ccccc2cc1CSc1nc2cc(F)ccc2[nH]1 [Compound 4b, 3-(5-Fluoro-1H-benzoimidazol-2-ylsulfanylmethyl)-chromen-2-one]
[1]
  EC50: 11.5 µM
  SI (selectivity index, ratio of CC50 to EC50): 3.89
[2]
  CC50 at 72 h: 44.8 µM

## COc1cccc2cc(CSc3nc4cnc(Cl)nc4[nH]3)c(=O)oc12 [Compound 16e, 3-(2-Chloro-9H-purin-8-ylsulfanylmethyl)-8-methoxy-chromen-2-one]
[1]
  EC50: 19.6 µM
  SI (selectivity index, ratio of CC50 to EC50): 4.80
[2]
  CC50 at 72 h: 94 µM

## O=c1oc2ccccc2cc1CSc1nc2cc(Cl)c(Cl)cc2[nH]1 [Compound 4e, 3-(5,6-Dichloro-1H-benzoimidazol-2-ylsulfanylmethyl)-chromen-2-one]
[1]
  EC50: 15.5 µM
  SI (selectivity index, ratio of CC50 to EC50): 4.80
[2]
  CC50 at 72 h: 74.4 µM

## O=c1oc2ccc(Br)cc2cc1CSc1nc2ccccc2[nH]1 [Compound 4g, 3-(1H-Benzoimidazol-2-ylsulfanylmethyl)-6-bromo-chromen-2-one]
[1]
  EC50: 3.98 µM
  SI (selectivity index, ratio of CC50 to EC50): 10.4
[2]
  CC50 at 72 h: 41.7 µM

## COc1cccc2cc(CSc3nc4cc(Cl)c(Cl)cc4n3C3OC(COC(C)=O)C(OC(C)=O)C(OC(C)=O)C3OC(C)=O)c(=O)oc12 (stereo not drawn) [Compound 7h, Acetic acid 3,4,5-triacetoxy-6-[5,6-dichloro-2-(8-methoxy-2-oxo-2H-chromen-3-ylmethylsulfanyl)-benzoimidazol-1-yl]-tetrahydro-pyran-2-ylmethyl ester]
[1]
  EC50: 4.35 µM
  SI (selectivity index, ratio of CC50 to EC50): 7.62
[2]
  CC50 at 72 h: 33.1 µM

## O=c1oc2ccc(Br)cc2cc1CSc1nc2ccccc2o1 [Compound 19c, 3-(Benzooxazol-2-ylsulfanylmethyl)-6-bromo-chromen-2-one]
[1]
  EC50: 11.8 µM
  SI (selectivity index, ratio of CC50 to EC50): 11.10
[2]
  CC50 at 72 h: 131 µM

## CC(=O)OCC1OC(n2c(SCc3cc4ccccc4oc3=O)nc3ccccc32)C(OC(C)=O)C(OC(C)=O)C1OC(C)=O (stereo not drawn) [Compound 7a, Acetic acid 3,5-diacetoxy-2-acetoxymethyl-6-[2-(2-oxo-2H-chromen-3-ylmethylsulfanyl)-benzoimidazol-1-yl]-tetrahydro-pyran-4-yl ester]
[1]
  EC50: 11.1 µM
  SI (selectivity index, ratio of CC50 to EC50): 6.88
[2]
  CC50 at 72 h: 76.4 µM

## CC(=O)OCC1OC(n2c(SCc3cc4cc(Br)ccc4oc3=O)nc3ccccc32)C(OC(C)=O)C(OC(C)=O)C1OC(C)=O (stereo not drawn) [Compound 7e, Acetic acid 4,5-diacetoxy-2-acetoxymethyl-6-[2-(6-bromo-2-oxo-2H-chromen-3-ylmethylsulfanyl)-benzoimidazol-1-yl]-tetrahydro-pyran-3-yl ester]
[1]
  EC50: 4.12 µM
  SI (selectivity index, ratio of CC50 to EC50): 10.4
[2]
  CC50 at 72 h: 43.1 µM

## COc1cccc2cc(CSc3nc4cc(Cl)c(Cl)cc4[nH]3)c(=O)oc12 [Compound 4j, 3-(5,6-Dichloro-1H-benzoimidazol-2-ylsulfanylmethyl)-8-methoxy-chromen-2-one]
[1]
  EC50: 3.58 µM
  SI (selectivity index, ratio of CC50 to EC50): 3.12
[2]
  CC50 at 72 h: 11.1 µM

## O=c1oc2ccccc2cc1CSc1nc2ccccc2o1 [Compound 19a, 3-(Benzooxazol-2-ylsulfanylmethyl)-chromen-2-one]
[1]
  EC50: 11.7 µM
  SI (selectivity index, ratio of CC50 to EC50): 3.86
[2]
  CC50 at 72 h: 45.2 µM

## CC(=O)OCC1OC(n2c(SCc3cc4cc(Br)ccc4oc3=O)nc3cc(F)ccc32)C(OC(C)=O)C(OC(C)=O)C1OC(C)=O (stereo not drawn) [Compound 7f, Acetic acid 3,5-diacetoxy-2-acetoxymethyl-6-[2-(6-bromo-2-oxo-2H-chromen-3-ylmethylsulfanyl)-5-fluoro-benzoimidazol-1-yl]-tetrahydro-pyran-4-yl ester]
[1]
  EC50: 3.33 µM
  SI (selectivity index, ratio of CC50 to EC50): 6.59
[2]
  CC50 at 72 h: 21.9 µM

## O=c1oc2ccccc2cc1CSc1nc2ccccc2[nH]1 [Compound 4a, 3-(1H-Benzoimidazol-2-ylsulfanylmethyl)-chromen-2-one]
[1]
  EC50: 26.6 µM
  SI (selectivity index, ratio of CC50 to EC50): 3.38
[2]
  CC50 at 72 h: 90.1 µM

## CC(=O)OCC1OC(n2c(SCc3cc4ccccc4oc3=O)nc3cc(Cl)c(Cl)cc32)C(OC(C)=O)C(OC(C)=O)C1OC(C)=O (stereo not drawn) [Compound 7d, Acetic acid 3,5-diacetoxy-2-acetoxymethyl-6-[5,6-dichloro-2-(2-oxo-2H-chromen-3-ylmethylsulfanyl)-benzoimidazol-1-yl]-tetrahydro-pyran-4-yl ester]
[1]
  EC50: 3.14 µM
  SI (selectivity index, ratio of CC50 to EC50): 6.33
[2]
  CC50 at 72 h: 19.8 µM

## Cc1cccc2cc(CSc3nc4ccccc4[nH]3)c(=O)oc12 [Compound 4f, 3-(1H-benzoimidazol-2-ylsulfanylmethyl)-8-methyl-chromen-2-one]
[1]
  EC50: 9.89 µM
  SI (selectivity index, ratio of CC50 to EC50): 2.77
[2]
  CC50 at 72 h: 27.3 µM

## O=c1oc2ccc(Br)cc2cc1CSc1nc2cc(F)ccc2[nH]1 [Compound 4i, 6-Bromo-3-(5-fluoro-1H-benzoimidazol-2-ylsulfanylmethyl)-chromen-2-one]
[1]
  EC50: 3.36 µM
  SI (selectivity index, ratio of CC50 to EC50): 7.96
[2]
  CC50 at 72 h: 26.7 µM

## O=c1oc2ccc(Br)cc2cc1CSc1nc2cc(Cl)c(Cl)cc2[nH]1 [Compound 4k, 6-Bromo-3-(5,6-dichloro-1H-benzoimidazol-2-ylsulfanylmethyl)-chromen-2-one]
[1]
  EC50: 2.29 µM
  SI (selectivity index, ratio of CC50 to EC50): 19.3
[2]
  CC50 at 72 h: 44.1 µM

## O=c1oc2ccc(Br)cc2cc1CSc1nc2cccnc2[nH]1 [Compound 16c, 3-(3H-Imidazo[4,5-b]pyridin-2-ylsulfanylmethyl)-6-bromo-chromen-2-one]
[1]
  EC50: 6.8 µM
  SI (selectivity index, ratio of CC50 to EC50): 18.82
[2]
  CC50 at 72 h: 128 µM

## CC(=O)OCC1OC(n2c(SCc3cc4ccccc4oc3=O)nc3cc(F)ccc32)C(OC(C)=O)C(OC(C)=O)C1OC(C)=O (stereo not drawn) [Compound 7c, Acetic acid 3,5-diacetoxy-2-acetoxymethyl-6-[5-fluoro-2-(2-oxo-2H-chromen-3-ylmethylsulfanyl)-benzoimidazol-1-yl]-tetrahydro-pyran-4-yl ester]
[1]
  EC50: 3.88 µM
  SI (selectivity index, ratio of CC50 to EC50): 11.1
[2]
  CC50 at 72 h: 43.1 µM
